Measurements taken from publication PMC10388311, “Innovative Strategy toward Mutant CFTR Rescue in Cystic Fibrosis: Design and Synthesis of Thiadiazole Inhibitors of the E3 Ligase RNF5” (Journal of Medicinal Chemistry, 2023).
“Also recorded” adds a separate entry of the source.

Key:
[1] = target: T1, recombinant truncated RNF5 (aa 1–117) (Homo sapiens, UniProt Q99942); experiment: MicroScale Thermophoresis (MST) binding check; settings: RED-NHS labeled RNF5 (aa 1–117); compound at maximum concentration allowed by solubility (12: 100 M [sic])
T1 construct: human RNF5 protein (aa 1–117) truncated to exclude the transmembrane domains; GST (followed by TEV protease site) (N, cleaved yes); host or cells: Escherichia coli BL21(DE3)
T1 sequence (Q99942 1-117): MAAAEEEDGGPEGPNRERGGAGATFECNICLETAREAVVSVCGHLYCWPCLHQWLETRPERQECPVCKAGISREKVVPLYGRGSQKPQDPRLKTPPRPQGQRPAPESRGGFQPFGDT
Excerpt: The bindings of compounds 12, 40, and 42 were initially evaluated by MicroScale Thermophoresis (MST) using a purified recombinant truncated form of RNF5 (aa 1–117), lacking the C-terminal transmembrane domains. The protein was covalently labeled with a red dye (NHS) on the primary amines (lysine residues). […] NMR experiments on the recombinant RNF5 form were further performed to test the direct binding of the three compounds to the protein with a more sensitive, label-free, independent approach. Analogs 12, 40, and 42 were tested at 50 μM in the absence and in the presence of 3 μM RNF5 (1–117) protein. […] Indeed, for all three compounds, the NMR signals of their methyls are present in the STD spectra, and in the WaterLOGSY spectra, their signals change from negative to positive in the presence of the protein, indisputably highlighting the formation of compound–protein binding events. […] It has to be noted that NMR is a very sensitive technique that allows detecting also compounds weakly binding to their target protein independent of the possible downstream biological effects. Indeed, we can speculate that compounds 40 and 42 may bind to RNF5 without inhibiting its ubiquitin ligase activity, thus not leading to mutant CFTR rescue. These compounds could even act as RNF5 activators, similar to analog-1.
A construct coding for human RNF5 protein (aa 1–117) truncated to exclude the transmembrane domains, with an N-terminal GST-tag followed by the recognition site for TEV protease (pET vector backbone), was purchased from CliniSciences. A similar construct was recently described in the work of Ruan et al.[44] […]
Purified RNF5 was labeled using a Monolith protein labeling kit RED-NHS 2nd generation (NanoTemper Technologies, München, Germany) following manufacturer’s instructions. Labeled protein (5 nM) was first tested in a pre-test assay for optimal fluorescence, absence of aggregation, and sticking to capillaries using MST buffer [PBS, 0.05% Tween-20, 0.1% PEG-8000, 1 μM ZnCl2] with or without 1 mM DTT. […]

[2] = target: F508del-CFTR in CFBE41o– cells (Homo sapiens, UniProt Q99942); experiment: HS-YFP microfluorimetric assay of F508del-CFTR rescue (corrector activity); assay type: cell-based; settings: for F508del-CFTR corrector activity compared with inh-2 (CFTR activity, primary screen): CFBE41o– cells co-expressing F508del-CFTR and HS-YFP, 24 h treatment, Figure 5; for improvement of the rescue elicited by the double combination VX-661 + VX-445 / mutant CFTR activity upon co-treatment with VX-809 or VX-445: RNF5 inhibitor 5 μM; for improvement of the rescue elicited by the double combination VX-661 + VX-445: VX-661 + VX-445 10 μM + 3 μM; for mutant CFTR activity upon co-treatment with VX-809 or VX-445: VX-809 3 μM, VX-445 3 μM
Chain of F508del-CFTR in CFBE41o– cells (Q99942 2-180): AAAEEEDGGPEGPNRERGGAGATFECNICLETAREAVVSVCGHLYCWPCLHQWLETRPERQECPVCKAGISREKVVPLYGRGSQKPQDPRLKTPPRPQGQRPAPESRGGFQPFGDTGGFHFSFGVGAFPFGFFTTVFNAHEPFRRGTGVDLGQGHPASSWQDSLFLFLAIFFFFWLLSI
Chain of F508del-CFTR in CFBE41o– cells (P13569 with tags, fused parts or gaps DEL508-508 partner): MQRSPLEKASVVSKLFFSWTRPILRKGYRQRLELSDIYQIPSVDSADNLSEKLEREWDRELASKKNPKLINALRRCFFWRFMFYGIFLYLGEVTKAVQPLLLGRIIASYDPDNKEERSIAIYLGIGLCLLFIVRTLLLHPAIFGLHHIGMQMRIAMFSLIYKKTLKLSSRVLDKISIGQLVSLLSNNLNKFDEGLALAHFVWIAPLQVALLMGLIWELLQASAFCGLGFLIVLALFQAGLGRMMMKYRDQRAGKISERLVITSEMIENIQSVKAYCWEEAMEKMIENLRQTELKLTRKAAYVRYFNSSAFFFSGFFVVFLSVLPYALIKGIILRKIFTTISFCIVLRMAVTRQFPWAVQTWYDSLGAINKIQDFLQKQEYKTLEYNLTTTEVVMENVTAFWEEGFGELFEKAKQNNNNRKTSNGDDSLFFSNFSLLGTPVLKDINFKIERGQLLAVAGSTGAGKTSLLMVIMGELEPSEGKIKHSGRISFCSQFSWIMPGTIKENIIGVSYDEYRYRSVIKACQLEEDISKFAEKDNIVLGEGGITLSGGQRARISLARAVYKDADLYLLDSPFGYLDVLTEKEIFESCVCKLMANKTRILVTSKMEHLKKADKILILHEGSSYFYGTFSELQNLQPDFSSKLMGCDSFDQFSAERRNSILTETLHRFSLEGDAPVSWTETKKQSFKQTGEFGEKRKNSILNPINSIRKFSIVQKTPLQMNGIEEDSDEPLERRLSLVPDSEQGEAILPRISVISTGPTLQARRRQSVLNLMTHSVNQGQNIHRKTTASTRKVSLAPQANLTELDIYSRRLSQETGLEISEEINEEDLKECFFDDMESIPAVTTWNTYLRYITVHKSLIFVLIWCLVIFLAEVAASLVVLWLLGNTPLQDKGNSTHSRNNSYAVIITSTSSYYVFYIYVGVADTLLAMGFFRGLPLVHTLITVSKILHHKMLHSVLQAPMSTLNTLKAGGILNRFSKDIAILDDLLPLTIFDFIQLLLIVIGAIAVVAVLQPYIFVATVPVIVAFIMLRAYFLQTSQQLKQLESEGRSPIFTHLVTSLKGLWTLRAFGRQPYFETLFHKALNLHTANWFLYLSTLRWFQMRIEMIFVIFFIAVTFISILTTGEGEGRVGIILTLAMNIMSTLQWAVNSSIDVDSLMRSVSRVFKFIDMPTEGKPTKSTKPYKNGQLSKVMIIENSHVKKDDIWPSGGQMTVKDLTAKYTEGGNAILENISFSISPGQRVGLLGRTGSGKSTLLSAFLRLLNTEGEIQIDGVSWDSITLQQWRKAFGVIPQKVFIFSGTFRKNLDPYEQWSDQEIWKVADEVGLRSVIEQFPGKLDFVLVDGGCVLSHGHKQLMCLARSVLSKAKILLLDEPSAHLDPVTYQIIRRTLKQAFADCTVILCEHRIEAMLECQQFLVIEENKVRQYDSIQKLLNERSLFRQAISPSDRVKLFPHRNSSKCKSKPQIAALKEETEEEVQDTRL
Procedure, shortened: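 CFBE41o– cells stably co-expressing F508del-CFTR and HS-YFP were treated with compounds 24 h after seeding; VX-809 (1 μM) served as positive control. F508del-CFTR was stimulated with forskolin (20 μM) plus VX-770 (1 μM) for 25 min before iodide injection. I– influx rate was taken as initial slope (dF/dt) from an exponential fit of YFP quenching.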

| SMILES | direct binding to RNF5 by MST (binding check) [1] | F508del-CFTR corrector activity compared with inh-2 (CFTR activity, primary screen) [2] | F508del-CFTR activity in cells transfected with NT or RNF5 siRNA ([2]; CFBE41o– cells, 16 5 μM alone or combined with VX-661 + VX-445 (10 μM + 3 μM), 24 h) | improvement of the rescue elicited by the double combination VX-661 + VX-445 ([2]; CFBE41o– cells, 24 h) | mutant CFTR activity upon co-treatment with VX-809 or VX-445 ([2]; CFBE41o– cells, 24 h) |
| --- | --- | --- | --- | --- | --- |
| Cc1ns/c(=N\C(=N\c2ccccc2)c2ccccc2)n1Cc1ccc(C(=O)O)cc1 [Compound 12, 4-(((Z)-3-Methyl-5-(((E)-phenyl(phenylimino)methyl)imino)-1,2,4-thiadiazol-4(5H)-yl)methyl)benzoic Acid] | compound 12 is binding to RNF5; also recorded: evidence of direct binding | reduced potency; also recorded: lower F508del-CFTR activity compared to inh-2 | – | – | – |
| COc1cccc(Cn2c(C)ns/c2=N\C(=N\c2ccccc2)c2ccccc2)c1 [Compound 16, (E)-N-((Z)-4-(3-Methoxybenzyl)-3-methyl-1,2,4-thiadiazol-5(4H)-ylidene)-N′-phenylbenzimidamide] | – | increased activity; also recorded: greater F508del-CFTR rescue than inh-2 | increased the F508del-CFTR activity only in cells transfected with NT siRNA, but not in those transfected with RNF5 siRNA | able to further improve the rescue | significantly increased mutant CFTR activity |
| Cc1ns/c(=N\C(=N\c2ccccc2)c2ccccc2)n1Cc1ccccc1 [inh-2, reference compound] | – | – | – | only analogue 16 was able to further improve the rescue | significantly increased mutant CFTR activity |

Further lines, with some results ahead:

| direct binding to RNF5 by MST (binding check) [1] | SMILES | F508del-CFTR corrector activity compared with inh-2 (CFTR activity, primary screen) [2] | F508del-CFTR activity in cells transfected with NT or RNF5 siRNA ([2]; CFBE41o– cells, 16 5 μM alone or combined with VX-661 + VX-445 (10 μM + 3 μM), 24 h) | improvement of the rescue elicited by the double combination VX-661 + VX-445 ([2]; CFBE41o– cells, 24 h) | mutant CFTR activity upon co-treatment with VX-809 or VX-445 ([2]; CFBE41o– cells, 24 h) |
| --- | --- | --- | --- | --- | --- |
| observed only for compound 12 | Cc1ns/c(=N\c2ccccn2)n1Cc1ccccc1 [Compound 42, (Z)-4-Benzyl-3-methyl-N-(pyridin-2-yl)-1,2,4-thiadiazol-5(4H)-imine] | inactive compounds; also recorded: almost inactive as CFTR correctors | – | – | – |
| observed only for compound 12 | Cc1ns/c(=N\C(=N\c2ccncc2)c2ccccc2)n1Cc1ccccc1 [Compound 40, (E)-N-((Z)-4-Benzyl-3-methyl-1,2,4-thiadiazol-5(4H)-ylidene)-N′-(pyridin-4-yl)benzimidamide] | inactive analogs; also recorded: almost inactive as CFTR correctors | – | – | – |
